Measurements taken from ChEMBL document CHEMBL2074069, “Drug- and estrogen-induced cholestasis through inhibition of the hepatocellular bile salt export pump (Bsep) of rat liver” (Gastroenterology, 2000).

How the values were obtained:
[1] = molecular target: ATP-binding cassette sub-family C member 2 (Rattus norvegicus, UniProt Q63120); test: TP_TRANSPORTER: uptake in membrane vesicles from Mrp2-expressing Sf9 cells; format: functional, cell membranes, Membrane vesicle
[2] = molecular target: T1, Bile salt export pump (Rattus norvegicus, UniProt O70127); test: TP_TRANSPORTER: inhibition of Taurocholate uptake in membrane vesicles from Bsep-expressing Sf9 cells; format: functional
T1 sequence (O70127 whole entry): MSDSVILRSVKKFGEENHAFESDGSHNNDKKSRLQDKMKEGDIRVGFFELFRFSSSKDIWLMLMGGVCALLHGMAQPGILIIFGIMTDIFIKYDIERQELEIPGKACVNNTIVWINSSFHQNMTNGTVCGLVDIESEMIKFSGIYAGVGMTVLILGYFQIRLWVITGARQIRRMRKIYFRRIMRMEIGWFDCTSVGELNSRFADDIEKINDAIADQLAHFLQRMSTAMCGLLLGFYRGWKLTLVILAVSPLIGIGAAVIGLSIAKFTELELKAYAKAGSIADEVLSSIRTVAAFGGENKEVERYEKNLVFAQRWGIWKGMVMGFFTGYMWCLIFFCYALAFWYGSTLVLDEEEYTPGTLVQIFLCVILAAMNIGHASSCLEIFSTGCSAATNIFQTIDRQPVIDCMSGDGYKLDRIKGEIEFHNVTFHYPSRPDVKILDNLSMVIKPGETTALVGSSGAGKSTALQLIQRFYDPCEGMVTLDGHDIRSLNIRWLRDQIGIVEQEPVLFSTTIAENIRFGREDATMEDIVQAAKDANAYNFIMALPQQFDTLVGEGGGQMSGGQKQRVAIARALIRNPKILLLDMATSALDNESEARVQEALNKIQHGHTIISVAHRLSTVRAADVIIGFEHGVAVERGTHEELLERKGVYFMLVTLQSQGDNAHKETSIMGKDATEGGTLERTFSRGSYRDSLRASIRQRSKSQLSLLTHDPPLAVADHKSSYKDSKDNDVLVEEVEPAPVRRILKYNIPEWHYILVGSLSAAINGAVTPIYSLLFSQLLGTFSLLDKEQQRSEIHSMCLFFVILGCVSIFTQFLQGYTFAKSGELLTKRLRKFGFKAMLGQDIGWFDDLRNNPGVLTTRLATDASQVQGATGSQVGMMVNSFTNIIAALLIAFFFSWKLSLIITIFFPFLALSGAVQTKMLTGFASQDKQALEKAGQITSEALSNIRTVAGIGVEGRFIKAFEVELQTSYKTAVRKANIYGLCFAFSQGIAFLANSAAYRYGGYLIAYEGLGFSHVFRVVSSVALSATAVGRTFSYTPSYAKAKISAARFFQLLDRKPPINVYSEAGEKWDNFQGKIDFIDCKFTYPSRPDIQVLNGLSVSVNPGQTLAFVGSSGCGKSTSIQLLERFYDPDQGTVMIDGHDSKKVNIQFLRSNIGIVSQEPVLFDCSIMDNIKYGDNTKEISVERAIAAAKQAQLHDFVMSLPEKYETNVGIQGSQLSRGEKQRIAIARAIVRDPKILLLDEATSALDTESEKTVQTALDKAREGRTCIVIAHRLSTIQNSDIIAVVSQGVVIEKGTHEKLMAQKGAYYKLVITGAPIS

[3] = molecular target: T1, Bile salt export pump; test: (§1) TP_TRANSPORTER: uptake in membrane vesicles from Bsep-expressing Sf9 cells; format: functional
[4] = substrate: C[C@H](CCC(=O)NCCS(=O)(=O)O)[C@H]1CC[C@H]2[C@@H]3[C@@H](O)C[C@@H]4C[C@H](O)CC[C@]4(C)[C@H]3CC[C@]12C; test: as §1; format: functional
[5] = substrate: C[C@H](CCC(=O)NCCS(=O)(=O)O)[C@H]1CC[C@H]2[C@@H]3[C@H](O)C[C@@H]4C[C@H](O)CC[C@]4(C)[C@H]3CC[C@]12C; test: as §1; format: functional

Sequence of ATP-binding cassette sub-family C member 2 (Q63120 whole entry): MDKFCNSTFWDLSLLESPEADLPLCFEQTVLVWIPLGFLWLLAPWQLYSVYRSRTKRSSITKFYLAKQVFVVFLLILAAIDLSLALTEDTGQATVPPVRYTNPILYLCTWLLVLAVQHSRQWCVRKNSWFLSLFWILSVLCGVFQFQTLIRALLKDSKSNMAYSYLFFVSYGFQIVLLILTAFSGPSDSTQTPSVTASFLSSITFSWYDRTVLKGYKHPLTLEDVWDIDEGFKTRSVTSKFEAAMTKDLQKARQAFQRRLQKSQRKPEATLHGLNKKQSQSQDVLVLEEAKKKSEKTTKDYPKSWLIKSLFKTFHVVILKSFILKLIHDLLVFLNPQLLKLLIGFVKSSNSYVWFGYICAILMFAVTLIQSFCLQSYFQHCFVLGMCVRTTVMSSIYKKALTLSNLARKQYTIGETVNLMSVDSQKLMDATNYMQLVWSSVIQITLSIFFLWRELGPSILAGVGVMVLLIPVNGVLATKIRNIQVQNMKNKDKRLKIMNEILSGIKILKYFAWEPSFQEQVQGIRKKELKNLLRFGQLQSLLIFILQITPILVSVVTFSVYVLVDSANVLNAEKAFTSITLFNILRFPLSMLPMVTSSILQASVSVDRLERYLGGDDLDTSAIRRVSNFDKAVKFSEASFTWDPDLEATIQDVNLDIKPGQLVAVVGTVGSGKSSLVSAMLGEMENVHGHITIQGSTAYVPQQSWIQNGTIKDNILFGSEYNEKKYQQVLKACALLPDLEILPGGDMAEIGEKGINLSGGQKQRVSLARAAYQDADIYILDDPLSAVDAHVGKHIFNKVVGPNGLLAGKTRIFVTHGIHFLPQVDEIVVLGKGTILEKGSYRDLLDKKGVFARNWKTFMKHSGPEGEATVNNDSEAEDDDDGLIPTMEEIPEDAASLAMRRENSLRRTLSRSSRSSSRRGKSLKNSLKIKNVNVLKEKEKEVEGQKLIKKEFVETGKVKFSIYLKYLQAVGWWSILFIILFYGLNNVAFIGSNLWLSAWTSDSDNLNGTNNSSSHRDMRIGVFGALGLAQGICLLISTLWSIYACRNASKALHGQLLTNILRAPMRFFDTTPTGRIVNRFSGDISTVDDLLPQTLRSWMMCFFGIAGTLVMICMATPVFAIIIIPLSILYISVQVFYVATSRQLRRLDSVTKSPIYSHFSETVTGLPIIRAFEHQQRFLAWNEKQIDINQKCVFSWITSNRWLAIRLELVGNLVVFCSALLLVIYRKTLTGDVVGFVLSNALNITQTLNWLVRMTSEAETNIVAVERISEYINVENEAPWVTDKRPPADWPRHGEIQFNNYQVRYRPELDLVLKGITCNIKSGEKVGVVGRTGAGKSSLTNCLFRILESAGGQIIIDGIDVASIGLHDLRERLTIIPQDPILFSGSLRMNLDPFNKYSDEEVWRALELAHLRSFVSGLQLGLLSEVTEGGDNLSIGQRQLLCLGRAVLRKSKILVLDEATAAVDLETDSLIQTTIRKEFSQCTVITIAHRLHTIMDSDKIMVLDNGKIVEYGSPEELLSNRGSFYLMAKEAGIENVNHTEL

For C[C@H](CCC(=O)NCCS(=O)(=O)O)C1CC[C@H]2[C@@H]3CC[C@@H]4C[C@H](OS(=O)(=O)O)CC[C@]4(C)[C@H]3CC[C@]12C (some centres undefined), the Activity [1] was “substrate [+]”.

COc1ccc(Cl)cc1C(=O)NCCc1ccc(S(=O)(=O)NC(=O)NC2CCCCC2)cc1 [GLYBURIDE] gave a Ki [2] of 6.1 µM.

C[C@H](CCC(=O)NCC(=O)O)[C@H]1CC[C@H]2[C@@H]3[C@H](O)C[C@@H]4C[C@H](O)CC[C@]4(C)[C@H]3CC[C@]12C [GLYCOCHENODEOXYCHOLATE] was tested, and the Activity [3] was “substrate [+]”.

In the case of C[C@H](CCC(=O)NCC(=O)O)[C@H]1CC[C@H]2[C@@H]3[C@H](O)C[C@@H]4C[C@H](O)CC[C@]4(C)[C@H]3C[C@H](O)[C@]12C [GLYCOCHOLIC ACID], the Activity [3] is reported as “substrate [+]”.

In the case of CO[C@H]1/C=C/O[C@@]2(C)Oc3c(C)c(O)c4c(O)c(c(/C=N/N5CCN(C)CC5)c(O)c4c3C2=O)NC(=O)/C(C)=C\C=C\[C@H](C)[C@H](O)[C@@H](C)[C@@H](O)[C@@H](C)[C@H](OC(C)=O)[C@@H]1C [RIFAMPIN], the Ki [2] is reported as 11.9 µM.

With CO[C@H]1/C=C/O[C@@]2(C)Oc3c(C)c(O)c4c(O)c(cc(O)c4c3C2=O)NC(=O)/C(C)=C\C=C\[C@H](C)[C@H](O)[C@@H](C)[C@@H](O)[C@@H](C)[C@H](OC(C)=O)[C@@H]1C [RIFAMYCIN] the Ki [2] was 3.8 µM.

C[C@H](CCC(=O)NCCS(=O)(=O)O)[C@H]1CC[C@H]2[C@@H]3CC[C@@H]4C[C@H](O)CC[C@]4(C)[C@H]3C[C@H](O)[C@]12C [TAURODEOXYCHOLIC ACID] was tested, and the Activity [3] was “substrate [+]”.

B1: Bile salt export pump (Rattus norvegicus) (protein)
chain: T1 sequence (O70127 whole entry)
With B1 the Km [4] was 4.1 µM and the Km [5] was 2.2 µM.
